According to the supplement of paper PMC5908809:

Columns and labels:
[1] = test system: normal NK cells expanded with K562-aAPC; experiment: percent inhibition of viability; higher = more inhibition; details: 72 h, IL-2 2.5 ng/mL
Description: (§1)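 Drug sensitivity and resistance testing on K562-aAPC-expanded normal NK cells: 5 concentrations (10-fold steps over a 10,000-fold range), 72 h at 37 °C, viability by CellTiter-Glo normalised to DMSO and benzethonium chloride controls; DSS from the fitted curve.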

[2] = test system: DERL-7 (IL-2 2.5 ng/mL); experiment: as above; details: 72 h
[3] = test system: IMC-1 (IL-2 20 ng/mL); experiment: as above; details: 72 h
[4] = test system: KAI3 (IL-2 2.5 ng/mL); experiment: as above; details: 72 h
[5] = test system: KHYG-1 (IL-2 2.5 ng/mL); experiment: as above; details: 72 h
[6] = test system: NK-92 (IL-2 2.5 ng/mL); experiment: as above; details: 72 h
[7] = test system: NK-YS (IL-2 2.5 ng/mL); experiment: as above; details: 72 h
[8] = test system: NKL (IL-2 2.5 ng/mL); experiment: as above; details: 72 h
[9] = test system: SNK-6 (IL-2 2.5 ng/mL); experiment: as above; details: 72 h
[10] = test system: YT (IL-2 2.5 ng/mL); experiment: as above; details: 72 h
[11] = test system: normal primary NK cells, pool 1 (3 donors) (IL-2 2.5 ng/mL); experiment: as above; details: 72 h
[12] = test system: normal primary NK cells, pool 1 (3 donors), resting (IL-2 0 ng/mL); experiment: as above; details: 72 h
[13] = test system: normal primary NK cells, pool 2 (3 donors) (IL-2 2.5 ng/mL); experiment: as above; details: 72 h
[14] = test system: normal primary NK cells, pool 3 (3 donors) (IL-2 2.5 ng/mL); experiment: as above; details: 72 h
[15] = test system: normal NK cells expanded with K562-aAPC; experiment: drug sensitivity score (DSS) (DSS units); higher = more sensitive; extreme values may be limits of the assay; details: 72 h; IL-2 2.5 ng/mL
Description: as §1

[16] = test system: DERL-7 (IL-2 2.5 ng/mL); experiment: as above; details: 72 h
[17] = test system: IMC-1 (IL-2 20 ng/mL); experiment: as above; details: 72 h
[18] = test system: KAI3 (IL-2 2.5 ng/mL); experiment: as above; details: 72 h
[19] = test system: KHYG-1 (IL-2 2.5 ng/mL); experiment: as above; details: 72 h
[20] = test system: NK-92 (IL-2 2.5 ng/mL); experiment: as above; details: 72 h
[21] = test system: NK-YS (IL-2 2.5 ng/mL); experiment: as above; details: 72 h
[22] = test system: NKL (IL-2 2.5 ng/mL); experiment: as above; details: 72 h
[23] = test system: SNK-6 (IL-2 2.5 ng/mL); experiment: as above; details: 72 h
[24] = test system: YT (IL-2 2.5 ng/mL); experiment: as above; details: 72 h
[25] = test system: normal primary NK cells, pool 1 (3 donors) (IL-2 2.5 ng/mL); experiment: as above; details: 72 h
[26] = test system: normal primary NK cells, pool 1 (3 donors), resting (IL-2 0 ng/mL); experiment: as above; details: 72 h
[27] = test system: normal primary NK cells, pool 2 (3 donors) (IL-2 2.5 ng/mL); experiment: as above; details: 72 h
[28] = test system: normal primary NK cells, pool 3 (3 donors) (IL-2 2.5 ng/mL); experiment: as above; details: 72 h

O=C(/C=C\n1cnc(-c2cc(C(F)(F)F)cc(C(F)(F)F)c2)n1)NNc1cnccn1 [Selinexor] (max concentration tested 10000 nM)
percent inhibition of viability [%]
Details	1 nM	10 nM	100 nM	1000 nM	10000 nM
[1]	4.95	27.1	55.3	96.5	101
[2]	-2.69	16.9	59.3	89.7	99.2
[3]	-4.46	1.62	-10.9	86.9	100
[4]	-3.28	4.63	52.6	93.7	106
[5]	0.08	3.04	35.7	93.3	102
[6]	-2.59	-2.77	33.9	90.6	101
[7]	-3.45	3.74	39	77.4	95.4
[8]	-4.23	11	42.8	76.3	87.8
[9]	-0.01	17.6	63.9	81.6	93.4
[10]	3.93	13.2	61.2	91.8	104
[11]	3.58	9.52	57.5	87.9	98.6
[12]	-3.27	25.6	77.9	87.5	93.1
[13]	-5.72	14.1	65.8	89.2	97.1
[14]	-6.17	1.79	59.1	88.1	99.8

Details	drug sensitivity score
[15]	25.9
[16]	25
[17]	15.5
[18]	23.9
[19]	21.3
[20]	20.8
[21]	19.4
[22]	19.9
[23]	25.1
[24]	25.4
[25]	24.1
[26]	29
[27]	26
[28]	24.6
